Tests used:
[1] = tested on: SOLNI (black nightshade); test: Pre-plant incorporated (PPI) herbicidal activity, warm season; format: in vivo, Solanum nigrum; settings: for Percent inhibition SOLNI: PPI application
In short: (§1)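 Cool-season species were held at 18/13° C in greenhouse or growth chamber, warm-season ones at 30/21° C in greenhouse. Test compound had been sprayed onto cover soil, mixed, and applied over the seeds. Percent inhibition against untreated pots was recorded about 14 days post-treatment.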

[2] = tested on: AMARE (redroot pigweed); test: Pre-emergence herbicidal activity, warm season; format: in vivo, Amaranthus retroflexus; settings: GR80 = lowest tested rate (300, 100, 30, 10 g/ha) with 80% or greater inhibition; approx. 14 days after treating; 30/21° C.
In short: (§2)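 GR80 values derive from percent inhibition relative to untreated plants, read roughly 14 days after sowing and pre-emergence soil-surface treatment (compound in 50:50 acetone/water; rates typically 10, 30, 100, 300 g/ha). Warm-season weeds grew at 30/21° C day/night, cool-season ones at 18/13° C; an asterisk marks activity without reaching 80% at the highest rate.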

[3] = tested on: rice (ORYSA); test: Selectivity test, PPI, warm season crop; format: in vivo, Oryza sativa; settings: PPI application
In short: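 Percent inhibition relative to untreated controls, assessed roughly 14 days post-planting. Seeds were covered with a soil layer into which solvent-borne compound had been sprayed and mixed. Plants were then grown at 30/21° C. (warm season) or 18/13° C. (cool season) day/night regimes.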

[4] = tested on: POROL (common purslane); test: Pre-emergence herbicidal activity, warm season; format: in vivo, Portulaca oleracea; settings: GR80 = lowest tested rate (300, 100, 30, 10 g/ha) with 80% or greater inhibition; approx. 14 days after treating; 30/21° C.
In short: as §2

[5] = tested on: ABUTH (velvetleaf); test: Pre-plant incorporated (PPI) herbicidal activity, warm season; format: in vivo, Abutilon theophrasti; settings: for Percent inhibition ABUTH: PPI application
In short: as §1

[6] = tested on: LAMPU (purple deadnettle); test: Pre-plant incorporated (PPI) herbicidal activity, cool season; format: in vivo, Lamium purpureum; settings: for Percent inhibition LAMPU: weed, PPI application
In short: as §1

[7] = tested on: STEME (common chickweed); test: Pre-emergence herbicidal activity, cool season; format: in vivo, Stellaria media; settings: lowest tested rate with 80% or greater inhibition; rates 300, 100, 30, 10 g/ha; about 14 days
In short: as §2

[8] = tested on: SORVU (shattercane); test: Pre-plant incorporated (PPI) herbicidal activity, warm season; format: in vivo, Sorghum vulgare; settings: for Percent inhibition SORVU: PPI application
In short: as §1

[9] = tested on: ECHCG (barnyardgrass); test: as above; format: in vivo, Echinochloa crus-galli; settings: for Percent inhibition ECHCG: PPI application
In short: as §1

[10] = pre-plant incorporated, GR80 = lowest tested rate with 80% or greater inhibition, approx. 14 days after treating, 30/21° C.
[11] = pre-plant incorporated, lowest tested rate with 80% or greater inhibition, about 14 days

Compound | Percent inhibition SOLNI ([1]; 100 g/ha) | Percent inhibition SOLNI ([1]; 300 g/ha) | Percent inhibition SOLNI ([1]; 900 g/ha) | Pre-emergence activity (GR80) AMARE [2] | Percent inhibition ORYSA ([3]; 30 g/ha) | Percent inhibition ORYSA ([3]; 100 g/ha) | Percent inhibition ORYSA ([3]; 300 g/ha) | Percent inhibition ORYSA ([3]; 900 g/ha) | Pre-emergence activity (GR80) POROL [4] | Percent inhibition ABUTH ([5]; 30 g/ha) | Percent inhibition ABUTH ([5]; 100 g/ha) | Percent inhibition ABUTH ([5]; 300 g/ha) | Percent inhibition ABUTH ([5]; 900 g/ha) | Percent inhibition LAMPU ([6]; 30 g/ha) | Percent inhibition LAMPU ([6]; 100 g/ha) | Percent inhibition LAMPU ([6]; 300 g/ha) | Percent inhibition LAMPU ([6]; 900 g/ha) | Pre-emergence activity GR80, STEME [7] | Percent inhibition SORVU ([8]; 30 g/ha) | Percent inhibition SORVU ([8]; 100 g/ha) | other results
CCN(CC)C(=O)n1cnc(S(=O)(=O)C(F)(F)C(F)F)n1 [Example 16] | 100% | 95% | 100% | 300 g/ha | 0% | 30% | 90% | 100% | 100 g/ha | 0% | 0% | 30% | 95% | 80% | 90% | 80% | 90% | 300 g/ha | 80% | 100% | Percent inhibition SOLNI ([1]; 10 g/ha): 100%; PPI activity (GR80) SOLNI [1, 10]: 30 g/ha; Percent inhibition ORYSA ([3]; 10 g/ha): 0%; Percent inhibition ABUTH ([5]; 10 g/ha): 0%; PPI activity (GR80) ABUTH [5, 10]: 100 g/ha; PPI activity GR80, LAMPU [6, 11]: 10 g/ha; Percent inhibition LAMPU ([6]; 10 g/ha): 50%; Percent inhibition SORVU ([8]; 10 g/ha): 20%; Percent inhibition SORVU ([8]; 300 g/ha): 100%; Percent inhibition SORVU ([8]; 900 g/ha): 100%; PPI activity GR80, SORVU [8, 11]: 30 g/ha; Percent inhibition ECHCG ([9]; 10 g/ha): 90%; Percent inhibition ECHCG ([9]; 30 g/ha): 100%; Percent inhibition ECHCG ([9]; 100 g/ha): 100%; Percent inhibition ECHCG ([9]; 300 g/ha): 100%; Percent inhibition ECHCG ([9]; 900 g/ha): 100%; PPI activity GR80, ECHCG [9, 11]: 30 g/ha
CCN(CC)C(=O)n1cnc(S(=O)(=O)C(F)(F)C(F)(F)Br)n1 [Example 4] | 95% | 100% | 100% | 100 g/ha | 0% | 0% | 0% | 20% | 100 g/ha | 0% | 0% | 20% | 70% | 40% | 80% | 80% | 90% | 10 g/ha | 0% | 45% | Percent inhibition SOLNI ([1]; 30 g/ha): 60%; Percent inhibition SORVU ([8]; 300 g/ha): 100%; Percent inhibition SORVU ([8]; 900 g/ha): 100%; Percent inhibition ECHCG ([9]; 30 g/ha): 20%; Percent inhibition ECHCG ([9]; 100 g/ha): 100%; Percent inhibition ECHCG ([9]; 300 g/ha): 100%; Percent inhibition ECHCG ([9]; 900 g/ha): 100%

Reference: patent US6461997B1, “Triazole sulfones having herbicidal activity” (Monsanto Technology LLC, priority 1999, dated 2002)
